From patent US7312248B2, “Control of parasites in animals by the use of novel trifluoromethanesulfonanilide oxime ether derivatives” (Schering-Plough Animal Health Corporation, priority 2004, dated 2007) come the findings set out here.

Type in all cases: in vivo
Series [1] has as its system Brown Dog Tick (Rhipicephalus sanguineus). Nature of the series: Rapid screening protocol for topical application on brown dog ticks. The settings on record: 48 h; Laboratory 2 F data.
The test system is the same in series [2]. Nature of the series: Dose response protocol for topical application on brown dog ticks (LD50). The note with it: 24 h mortality. On the procedure:
e) Dose response protocol for topical application on brown dog ticks (Rhipicephalus sanguineus): The test determines the level of insecticidal activity of sample compounds or formulations when applied topically on brown dog ticks. Sample compounds were stored prior to use in a freezer (−5±1° C.), unless otherwise specified.
• Mortality: A tick is defined as dead after it gives no apparent response when touched lightly or gently breathed upon, while observed for 30 seconds. • LD50 (Lethal Dose 50): The dose of a topically applied treatment at which 50% of the dog ticks are killed. • Reference compound: To assess an experimental compound for significant acaricidal activity a single dose level is chosen, which is based upon known results from previous experiments using a commercially available active i.e., a reference compound. The reference compound selected is one in common use, and one that has a similar mode of action against the Brown Dog Tick (i.e., the test species). • Recovery container: A recovery container consists of a 500 ml round plastic container measuring 115 mm diameter and 70 mm height, with a tight fitting lid that has 10 small (˜1 mm) holes inserted for air exchange. A 90 mm diameter piece of filter paper was placed on the bottom of the container and moistened with 1 mL of de-stilled water.
Adult, mixed sex, Brown Dog Ticks (Rhipicephalus sanguineus) were reared as follows: (i) cultured, (ii) transferred unfed, to a testing laboratory, and (iii) then maintained under controlled conditions (i.e., temp. 18°±2° C., humidity 75±5% RH). The ticks used were selected for vigor prior to testing, i.e., capable of actively walking and responsive to being touched or gently breathed upon.
During the testing, the temperature was maintained at 25±1° C., and the humidity was ambient. Seven dose levels (concentrations) of sample compound, in the form of serial dilutions in acetone, were derived from a pilot study and covered a range that produced very low to very high mortality. Groups of ten ticks were treated topically (on the abdomen) with 1 μL of a single dose level of the sample compound. Each test was replicated four times, i.e., employing a total of 40 ticks per dose level of each sample compound. As a control, ten ticks were treated with solvent only (acetone) for each test. Following the treatment, the ticks were held in recovery containers maintained under appropriate rearing conditions for 24 hours. Mortality resulting from the treatments was recorded at 24 hours. […] Press, London (1971).]

The subject of series [3] is cat flea (Ctenocephalides felis). Nature of the series: Ctenocephalides felis adulticide assay: dose response (LC50). In a few lines:
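Groups of 15 adult cat fleas, 3–7 days post-emergence, were exposed for 24 h at 25° C and 75% humidity to glass flask bases coated with six serial doses in acetone and dried for 24 h. Mortality was scored at 8 and 24 h, and LC50 was the surface-treatment concentration killing 50%.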

Series [4] has the same test system. Nature of the series: whole plant or invertebrate. The note with it: Ctenocephalides felis. In a few lines:
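Adult C. felis (3-7 days post-emergence; 15 per flask, at least 4 replicates) exposed to a glass flask base dried 24 h after coating with compound in acetone at 1.26 μg/cm^2. Held at 25±1 °C, 75±5% humidity; mortality (immobile or unable to right) scored at 8, 24 and/or 48 h as percentage.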

For a further series, the system named is Haemonchus contortus. Nature of the series: Haemonchus contortus larvacidal (larval development) assay. The note with it: 144 h, read-out: Haemonchus contortus LD99. In a few lines:
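Nematode eggs placed on agar containing compound (12 two-fold dilutions, final 0.024–50 μg/ml) and left 6 days to develop to L3. LD99 is the lowest concentration inhibiting development of 99% of larvae, derived from well titre (2^n−1) and top concentration.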

Where [5] appears, read: 8 h, read-out: C. felis Mortality (%) 8 h, 8 h, Laboratory 2 B data.
Setting [6] is: 24 h, read-out: C. felis Mortality (%) 24 h, 24 h, Laboratory 2 B data.
Setting [7] is: 24 h, read-out: C. felis Mortality (%) 24 h, 24 h, Laboratory 1 A data.
Setting [8] is: 48 h, read-out: C. felis Mortality (%) 48 h, 48 h, Laboratory 2 B data.

Where two headings read alike, the source gives them in different places.

As usually defined, the mortality is the percentage killed.

As for `CC(C)ON=C(c1cc(Cl)ccc1NS(=O)(=O)C(F)(F)F)C1CCCCC1` (racemic) [Compound 210, N-[4-chloro-2-(cyclohexylisopropoxyiminomethyl)phenyl]trifluoromethanesulfonamide], the “R. sanguineus Mortality (%) 48 h” value in series [1] was determined as 100%. The “R. sanguineus LD50” value in series [2] worked out at 2.7 μg/tick. The “C. felis LC50” value in series [3] (Laboratory 2 D data) is 0.1^D μg/cm^2. The mortality at 1.26 µg/cm2, 1.26 µg/cm2 was determined as 66% in series [4] (setting [5]) and 100% in series [4] (setting [6]).
As for `C/C(=N\Oc1ccc(F)cc1)c1cc(Cl)ccc1NS(=O)(=O)C(F)(F)F` [Compound 129, N-{4-chloro-2-[1-(4-fluorophenoxyimino)ethyl]phenyl}trifluoromethanesulfonamide], the IC99 in the series with Haemonchus contortus was 1.9 µg/mL. Further, the “R. sanguineus LD50” value in series [2] is 1.3 μg/tick. In addition, the “C. felis LC50” value is reported as 0.05 μg/cm^2 in series [3] (Laboratory 1 C data) and 0.02 μg/cm^2 in series [3] (Laboratory 2 D data). In addition, in series [4] (setting [7]), the mortality at 1.26 µg/cm2, 1.26 µg/cm2 was found to be 100%.
Regarding `CC/C(=N\OC1CCCC1)c1cc(Cl)ccc1NS(=O)(=O)C(F)(F)F` [Compound 155], the “R. sanguineus Mortality (%) 48 h” value in series [1] was determined as 92%. In addition, the “R. sanguineus LD50” value in series [2] was found to be 1.5 μg/tick. In addition, the “C. felis LC50” value in series [3] (Laboratory 1 C data) came out at 0.2 μg/cm^2; in series [3] (Laboratory 2 D data) it was 0.02 μg/cm^2. Moreover, the mortality at 1.26 µg/cm2, 1.26 µg/cm2 in series [4] (setting [7]) was 100%.
For `C=CCO/N=C(\CC)c1cc(Cl)ccc1NS(=O)(=O)C(F)(F)F` [Compound 156, N-[2-(1-allyloxyiminopropyl)-4-chlorophenyl]trifluoromethanesulfonamide] the same measures were 95%, 0.6 μg/tick, 0.4 μg/cm^2, 0.02 μg/cm^2 and 100%.
`COCCO/N=C(\C)c1cc(Cl)ccc1NS(=O)(=O)C(F)(F)F` [Compound 185, N-{4-chloro-2-[1-(2-methoxyethoxyimino)ethyl]phenyl}trifluoromethanesulfonamide]: in series [1], the “R. sanguineus Mortality (%) 48 h” value was determined as 100%. The “R. sanguineus LD50” value in series [2] is on record as 0.7 μg/tick. Besides, the “C. felis LC50” value in series [3] (Laboratory 1 C data) is 0.2 μg/cm^2; in series [3] (Laboratory 2 D data) it was 0.01 μg/cm^2. The mortality at 1.26 µg/cm2, 1.26 µg/cm2 in series [4] (setting [5]) and in series [4] (setting [6]) was 100% in each case.
`C/C(=N\OCC(F)(F)F)c1cc(Cl)ccc1NS(=O)(=O)C(F)(F)F` [Compound 186]: the “R. sanguineus Mortality (%) 48 h” value in series [1] was 100%. Moreover, the “R. sanguineus LD50” value in series [2] is 0.9 μg/tick. Besides, the “C. felis LC50” value in series [3] (Laboratory 1 C data) stood at 0.1 μg/cm^2; in series [3] (Laboratory 2 D data), 0.006 μg/cm^2. Also, the mortality at 1.26 µg/cm2, 1.26 µg/cm2 in series [4] (setting [5]) and in series [4] (setting [6]) was 100% throughout.
Regarding `CCCCO/N=C(\CC)c1cc(Cl)ccc1NS(=O)(=O)C(F)(F)F` [Compound 245], the “R. sanguineus LD50” value in series [2] stood at 3.9 μg/tick. Further, the “C. felis LC50” value in series [3] (Laboratory 2 D data) was 0.09^D μg/cm^2. Moreover, the mortality at 1.26 µg/cm2, 1.26 µg/cm2 in series [4] (setting [6]) and in series [4] (setting [8]) was 100% throughout.
With `CC/C(=N\OCCC(C)C)c1cc(Cl)ccc1NS(=O)(=O)C(F)(F)F` [Compound 247], the “R. sanguineus LD50” value in series [2] is 4.6 μg/tick. For the same compound, the “C. felis LC50” value in series [3] (Laboratory 2 D data) is recorded as 0.1^D μg/cm^2. Further, the mortality at 1.26 µg/cm2, 1.26 µg/cm2 in series [4] (setting [6]) and in series [4] (setting [8]) was 100% in each case.
As to `CC(C)=CCO/N=C(\C)c1cc(Cl)ccc1NS(=O)(=O)C(F)(F)F` [Compound 249], in series [2], the “R. sanguineus LD50” value turned out to be 3.3 μg/tick. In addition, in series [3] (Laboratory 2 D data), the “C. felis LC50” value is reported as 1.3^D μg/cm^2. Further, the mortality at 1.26 µg/cm2, 1.26 µg/cm2 in series [4] (setting [6]) and in series [4] (setting [8]) was 100% each time.
For the compound `C/C(=N\OC(C)C1CC1)c1cc(Cl)ccc1NS(=O)(=O)C(F)(F)F` (stereo not drawn) [Compound 253], the “R. sanguineus LD50” value in series [2] worked out at 3.4 μg/tick. For the same compound, the “C. felis LC50” value in series [3] (Laboratory 2 D data) was 1.2^D μg/cm^2. Besides, the mortality at 1.26 µg/cm2, 1.26 µg/cm2 in series [4] (setting [6]) and in series [4] (setting [8]) was 100% in each case.
